Data published in patent publication US7429291B2, “Print ink containing a plurality of fluorescent coloring materials and inkjet recording method” (Canon Kabushiki Kaisha, priority 2003, dated 2008).

Tests used:
[1] = Fluorescence emission and excitation spectra of coloring material in evaporated ink (FP-750); format: physicochemical; conditions: excitation at 254 nm
From the text: Hereinafter, the print ink of the present invention will be described with reference to the drawings. Unless noted as a recorded image or a printed matter, the results are with an evaporated ink in which water was removed by evaporation and coloring materials are dispersed in an organic solvent. The print ink according to each embodiment of the present invention contains a first fluorescent coloring material that emits fluorescence of a predetermined wavelength that is used for measurement or determination, with excitation at a predetermined excitation wavelength, a second fluorescent coloring material that emits fluorescence with excitation at the same excitation wavelength, and a liquid medium for solving or dispersing these materials therein.
Aspect 1 is characterized in that the fluorescence emission wavelength region of the second fluorescent coloring material covers at least the peak wavelength range of the excitation spectrum of the first fluorescent coloring material measured for emission at 600 nm (see FIG. 2) and/or the absorption wavelengths in the visible region of the first fluorescent coloring material (see the bottom of FIG. 6). […] Therefore, in FIG. 2, when the predetermined fluorescence wavelength of AR52 is 600 nm (the predetermined excitation wavelength: 254 nm), the peak wavelength range thereof is from 430 nm to 600 nm both inclusive. […]

[2] = Light absorption spectrum of coloring material; format: physicochemical
Protocol: Next, the present invention will be described more concretely with reference to the examples and the reference examples. Here, measured values obtained with pure-water diluents of coloring materials were used for an absorption wavelength region, a maximum absorption wavelength region, and a fluorescence wavelength region. Using an absorption spectrometer, absorption wavelengths were measured.
A diluent was prepared such that the absorbance thereof was in the range of 0.5 to 0.7. A higher region from a base line as an absorption peak of the coloring material was defined as an absorption wavelength region, and the peak value was defined as a maximum absorption wavelength region. In addition, for fluorescence wavelengths, the measurement conditions were defined such that the fluorescence intensities would not exceed the measurement threshold value. Then, the measurement of fluorescence wavelengths was performed by using the diluent used in the measurement of absorbance and by fixing the excitation wavelengths of the first and second coloring materials at predetermined wavelengths. A region higher than the base line was defined as a fluorescence emission wavelength region.
The absorption wavelength regions of the first and second coloring materials were measured using the spectrophotometer U-3200, manufactured by Hitachi Ltd., after the sample was diluted with pure water 100,000 fold. The absorption wavelength region of the first coloring material ranged from 450 to 620 nm both inclusive, and the maximum absorption wavelength thereof was 565 nm. In addition, the absorption wavelength region of the second coloring material ranged from 300 to 450 nm both inclusive, and the maximum absorption wavelength thereof was 372 nm.

[3] = absorption spectrum of the figures, normal ink

Row | fluorescence emission peak wavelength [1] [nm] | maximum absorption wavelength ([2]; Example 1, diluted with pure water 100,000 fold, spectrophotometer U-3200) [nm] | absorption peak wavelength in visible region [2, 3] [nm] | absorption band in visible region [2, 3] [nm] | SMILES
1 | 600 | 565 | 565 | – | CCN(CC)c1ccc2c(-c3ccc(S(=O)(=O)[O-])cc3S(=O)(=O)[O-])c3ccc(=[N+](CC)CC)cc-3oc2c1.[Na+] [C.I. Acid Red 52]
2 | 530 | – | 490 | ≤ 525 | O=C([O-])c1ccccc1-c1c2ccc(=O)cc-2oc2cc([O-])ccc12.[Na+].[Na+] [AY73, C.I. Acid Yellow 73]
